Experimental data: publication PMC6893645, “Baicalein as a Potential Inhibitor against BACE1 and AChE: Mechanistic Comprehension through In Vitro and Computational Approaches” (Nutrients, 2019)

Legend:
[1] = tested on: BACE1; parameters: method as in PMID 24291393; conditions: cited from earlier work
[2] = molecular target: T1, human recombinant TACE (Homo sapiens, UniProt P78536); experiment: TACE fluorometric assay; assay type: biochemical
T1 construct: purchased R&D Systems (Minneapolis, MN, USA)
T1 sequence (P78536 215-824): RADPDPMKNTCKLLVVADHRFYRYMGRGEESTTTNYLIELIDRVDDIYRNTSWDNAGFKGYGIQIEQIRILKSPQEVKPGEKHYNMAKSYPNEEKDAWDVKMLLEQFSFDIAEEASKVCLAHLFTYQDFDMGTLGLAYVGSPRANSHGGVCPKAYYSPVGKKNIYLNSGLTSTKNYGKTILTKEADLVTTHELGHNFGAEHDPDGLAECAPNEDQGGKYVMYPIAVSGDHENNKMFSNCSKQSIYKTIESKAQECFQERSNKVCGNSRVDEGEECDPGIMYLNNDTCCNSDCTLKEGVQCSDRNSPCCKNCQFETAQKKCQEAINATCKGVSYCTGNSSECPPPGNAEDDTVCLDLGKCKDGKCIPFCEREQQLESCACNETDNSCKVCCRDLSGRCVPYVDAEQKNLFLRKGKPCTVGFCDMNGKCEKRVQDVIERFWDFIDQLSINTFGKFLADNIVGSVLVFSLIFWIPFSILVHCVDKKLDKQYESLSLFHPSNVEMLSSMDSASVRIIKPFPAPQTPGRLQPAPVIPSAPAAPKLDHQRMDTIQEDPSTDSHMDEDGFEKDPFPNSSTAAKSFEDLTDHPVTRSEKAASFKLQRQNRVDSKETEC
Description: A human recombinant TACE (0.1 ppm in 25 mM Tris buffer), the substrate (APP peptide […] using EDANS/DABCYL), and baicalein were dissolved in an assay buffer and then combined and incubated for 60 min in the dark at 25 °C.

[3] = tested on: trypsin; experiment: Trypsin colorimetric assay; assay type: biochemical; conditions: for Inhibitory activity against Trypsin: mean ± SD
Description: (§1) The colorimetric assays of AChE, trypsin, chymotrypsin, and elastase were carried out using acetylthiocholine iodide, […], and N-succinyl-Ala-Ala-Ala-pNA as substrates, respectively. The hydrolysis of AChE was monitored according to the formation of yellow 5-thio-2-nitrobenzoate anions at 405 nm for 15 min, which were produced by the reaction of DTNB with thiocholine released from ACh. All reactions were performed in 96-well plates in triplicate and recorded using a microplate spectrophotometer.
(§2) For trypsin, chymotrypsin, and elastase assays, enzyme, Tris-HCl buffer (0.05 M, in 0.02 M CaCl2, pH 8.2), and baicalein were incubated for 10 min at 25 °C; then, substrate was added for 30 min at 37 °C. The absorbance was recorded at 410 nm. The inhibition ratio was obtained using the following equation:Inhibition (%) = {[1 − (A − B)]/control} × 100 where A was the absorbance of the control (enzyme, assay buffer, and substrate) after 60 min of incubation, and B was the absorbance of tested sample (assay buffer and sample solution) after 60 min of incubation.

[4] = molecular target: T2, chymotrypsin (Bos taurus, UniProt P00766); experiment: Chymotrypsin colorimetric assay; assay type: biochemical
T2 construct: purchased Sigma-Aldrich (St. Louis, MO, USA)
Description: as §1, §2

[5] = molecular target: T3, elastase (Sus scrofa, UniProt P00772); experiment: Elastase colorimetric assay; assay type: biochemical
T3 construct: purchased Sigma-Aldrich (St. Louis, MO, USA)
T3 sequence (P00772 27-266): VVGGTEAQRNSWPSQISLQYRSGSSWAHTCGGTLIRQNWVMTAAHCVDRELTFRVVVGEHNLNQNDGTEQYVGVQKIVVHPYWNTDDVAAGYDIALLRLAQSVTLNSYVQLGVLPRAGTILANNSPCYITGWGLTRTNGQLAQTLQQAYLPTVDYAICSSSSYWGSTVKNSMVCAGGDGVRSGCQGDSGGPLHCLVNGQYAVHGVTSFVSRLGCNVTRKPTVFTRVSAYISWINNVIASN
Description: as §1, §2

[6] = molecular target: AChE (Electrophorus electricus, UniProt O42275); conditions: Dixon and Lineweaver–Burk plots
Sequence of AChE (O42275 24-633): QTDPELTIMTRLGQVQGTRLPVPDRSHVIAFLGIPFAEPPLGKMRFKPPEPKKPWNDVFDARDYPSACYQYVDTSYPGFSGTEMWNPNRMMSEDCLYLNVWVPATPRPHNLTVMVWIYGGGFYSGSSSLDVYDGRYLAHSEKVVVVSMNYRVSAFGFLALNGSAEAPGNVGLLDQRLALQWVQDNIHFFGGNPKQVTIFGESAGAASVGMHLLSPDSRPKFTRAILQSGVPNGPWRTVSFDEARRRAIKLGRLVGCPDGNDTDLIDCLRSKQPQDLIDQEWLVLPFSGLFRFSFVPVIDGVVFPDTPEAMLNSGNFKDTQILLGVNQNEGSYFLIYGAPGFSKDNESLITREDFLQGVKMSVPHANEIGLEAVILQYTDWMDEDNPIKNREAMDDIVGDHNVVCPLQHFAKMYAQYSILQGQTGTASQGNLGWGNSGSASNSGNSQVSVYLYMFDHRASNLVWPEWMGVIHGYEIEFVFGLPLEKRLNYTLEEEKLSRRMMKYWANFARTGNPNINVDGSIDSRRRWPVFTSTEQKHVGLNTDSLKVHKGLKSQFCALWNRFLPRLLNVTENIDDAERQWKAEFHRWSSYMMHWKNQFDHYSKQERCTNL
Description: The colorimetric assays of AChE, trypsin, chymotrypsin, and elastase were carried out using acetylthiocholine iodide, N-benzoyl-L-Tyr-pNA, N-benzoyl-L-Arg-pNA, and N-succinyl-Ala-Ala-Ala-pNA as substrates, respectively. […] All reactions were performed in 96-well plates in triplicate and recorded using a microplate spectrophotometer.
The inhibitory constant (Ki) was obtained by interpretation of the Dixon plot, and maximum reaction velocity (Vmax) and Michaelis–Menten constant (Km) values were determined by a Lineweaver–Burk plot, using the initial velocities obtained over a different substrate concentration ranges.

[7] = tested on: Tg2576 mice; parameters: method as in PMID 23686791; conditions: 10 mg/kg; cited from earlier work
[8] = tested on: APP/PS1 mice; conditions: 80 mg/kg; cited from earlier work
[9] = tested on: AlCl3-induced AD mouse model; conditions: cited from earlier work
[10] = parameters: method as in doi:10.1016/j.arabjc.2017.08.002; conditions: chemical scavenging and cellular antioxidant ability among flavonoids of S. baicalensis; cited from earlier work
[11] = cited from earlier work
[12] = rat, oral S. baicalensis extract 30 mg/kg; cited from earlier work
[13] = humans, 2.8 mg single dose; cited from earlier work

O=c1cc(-c2ccc(O)cc2)oc2cc(O)cc(O)c12 [Apigenin, 4′,5,7-trihydroxyflavone]
IC50 [1]: > 100 µM

O=c1cc(-c2ccccc2)oc2cc(O)c(O)c(O)c12 [Baicalein, 5,6,7-trihydroxyflavone]
inhibition at 50 µM ([2]; baicalein 50 μM, mean ± SD, read-out: Inhibitory activity against TACE): 8.31 ± 0.89%
inhibition at 100 µM ([2]; baicalein 100 μM, mean ± SD, read-out: Inhibitory activity against TACE): 9.45 ± 0.71%
Inhibitory activity against TACE (in words) ([2]; up to 100 µM): no significant inhibitory activity
Inhibitory activity against Trypsin ([3]; baicalein 50 μM): 3.40 ± 0.76%
Inhibitory activity against Trypsin ([3]; baicalein 100 μM): −6.95 ± 0.87%
Inhibitory activity against trypsin (in words) ([3]; up to 100 µM): no significant inhibitory activity
inhibition at 50 µM ([4]; baicalein 50 μM, mean ± SD, read-out: Inhibitory activity against Chymotrypsin): 8.42 ± 0.76%
inhibition at 100 µM ([4]; baicalein 100 μM, mean ± SD, read-out: Inhibitory activity against Chymotrypsin): 4.48 ± 0.76%
Inhibitory activity against chymotrypsin (in words) ([4]; up to 100 µM): no significant inhibitory activity
inhibition at 50 µM ([5]; baicalein 50 μM, mean ± SD, read-out: Inhibitory activity against Elastase): 10.3 ± 1.04%
inhibition at 100 µM ([5]; baicalein 100 μM, mean ± SD, read-out: Inhibitory activity against Elastase): 9 ± 0.45%
Inhibitory activity against elastase (in words) ([5]; up to 100 µM): no significant inhibitory activity
AChE Inhibition Type [6]: Competitive
Cognitive performance [7]: significantly improves
LOX and GSK3β activity [8]: inhibits LOX and GSK3β activity
Behavioral dysfunction [9]: improved
Antioxidant ability [10]: most powerful antioxidant effect
Time to cross the BBB after administration ([11]; 30 mg/kg): about half an hour
BBB penetration ([11]; rat, 30 and 60 mg/kg through the femoral vein): rapidly penetrated the BBB
Brain-to-plasma ratio compared with baicalin [12]: twenty times higher
Toxicity after single-dose administration [13]: no signs of toxicity

O=c1cc(-c2ccccc2)oc2cc(O)cc(O)c12 [Chrysin, reference compound]
Antioxidant ability [10]: much weaker antioxidant ability
